pIC50: −log10 of the molar value. Where two headings read alike, the source gives them in different places.
What was measured:
Opiate δ1 (OP1, DOP) = Opiate δ1 (OP1, DOP) (Homo sapiens, UniProt P41143); settings: cited from earlier work
[1] = cited from earlier work
Muscarinic M1 [2] = biological target: T1, Muscarinic M1 (Homo sapiens, UniProt P11229); settings: cited from earlier work
T1 construct: host or cells: CHO-K1 cells

Muscarinic M3 = Muscarinic M3 (Homo sapiens, UniProt P20309); settings: cited from earlier work
Sequence of Muscarinic M3 (P20309 whole entry): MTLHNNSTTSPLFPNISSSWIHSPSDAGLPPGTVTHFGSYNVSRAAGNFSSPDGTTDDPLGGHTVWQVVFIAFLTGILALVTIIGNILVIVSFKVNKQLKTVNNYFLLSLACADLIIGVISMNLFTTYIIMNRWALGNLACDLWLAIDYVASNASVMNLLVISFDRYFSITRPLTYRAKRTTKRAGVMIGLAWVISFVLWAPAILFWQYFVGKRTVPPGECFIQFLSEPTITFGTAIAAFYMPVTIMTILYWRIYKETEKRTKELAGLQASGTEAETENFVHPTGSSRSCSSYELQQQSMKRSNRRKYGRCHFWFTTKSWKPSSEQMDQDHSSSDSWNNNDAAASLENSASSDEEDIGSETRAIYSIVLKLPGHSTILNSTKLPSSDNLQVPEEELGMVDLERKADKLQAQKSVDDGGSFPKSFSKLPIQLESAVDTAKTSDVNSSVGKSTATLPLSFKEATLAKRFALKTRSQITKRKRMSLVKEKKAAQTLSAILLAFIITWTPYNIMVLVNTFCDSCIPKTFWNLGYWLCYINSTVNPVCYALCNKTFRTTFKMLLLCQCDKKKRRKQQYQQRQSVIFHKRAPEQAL

Muscarinic M2 = biological target: T2, Muscarinic M2 (Homo sapiens, UniProt P08172); settings: cited from earlier work
T2 construct: host or cells: CHO-K1 cells
T2 sequence (P08172 whole entry): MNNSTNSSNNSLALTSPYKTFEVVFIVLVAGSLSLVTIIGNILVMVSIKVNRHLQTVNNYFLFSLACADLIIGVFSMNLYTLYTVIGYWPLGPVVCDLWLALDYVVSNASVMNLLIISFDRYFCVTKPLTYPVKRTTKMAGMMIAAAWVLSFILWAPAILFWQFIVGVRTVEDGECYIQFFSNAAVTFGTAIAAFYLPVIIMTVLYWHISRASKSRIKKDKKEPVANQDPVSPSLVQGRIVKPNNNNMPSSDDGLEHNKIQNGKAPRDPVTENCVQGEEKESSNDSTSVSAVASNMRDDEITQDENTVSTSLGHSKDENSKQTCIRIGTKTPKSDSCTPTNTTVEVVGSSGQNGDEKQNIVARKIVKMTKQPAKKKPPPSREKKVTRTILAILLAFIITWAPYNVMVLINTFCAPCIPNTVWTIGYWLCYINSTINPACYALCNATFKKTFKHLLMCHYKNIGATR

Muscarinic M1 [3] = biological target: T1, Muscarinic M1; experiment: Radioligand binding 252610; settings: read-out: IC50 Concurrent
[4] = assay standard, general statement; cited from earlier work

T1 sequence (P11229 whole entry): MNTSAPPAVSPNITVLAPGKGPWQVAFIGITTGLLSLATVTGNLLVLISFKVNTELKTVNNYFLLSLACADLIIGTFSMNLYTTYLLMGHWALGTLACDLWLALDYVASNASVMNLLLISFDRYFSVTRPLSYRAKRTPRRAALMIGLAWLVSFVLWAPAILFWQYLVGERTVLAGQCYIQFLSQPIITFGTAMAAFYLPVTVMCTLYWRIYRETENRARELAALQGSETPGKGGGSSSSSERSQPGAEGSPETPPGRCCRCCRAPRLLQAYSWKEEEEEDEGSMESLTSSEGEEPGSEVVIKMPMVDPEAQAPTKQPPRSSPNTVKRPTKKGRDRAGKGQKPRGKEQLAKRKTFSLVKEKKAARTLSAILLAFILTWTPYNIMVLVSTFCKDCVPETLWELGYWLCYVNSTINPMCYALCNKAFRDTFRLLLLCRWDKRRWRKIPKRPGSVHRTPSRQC
Sequence of Opiate δ1 (OP1, DOP) (P41143 whole entry): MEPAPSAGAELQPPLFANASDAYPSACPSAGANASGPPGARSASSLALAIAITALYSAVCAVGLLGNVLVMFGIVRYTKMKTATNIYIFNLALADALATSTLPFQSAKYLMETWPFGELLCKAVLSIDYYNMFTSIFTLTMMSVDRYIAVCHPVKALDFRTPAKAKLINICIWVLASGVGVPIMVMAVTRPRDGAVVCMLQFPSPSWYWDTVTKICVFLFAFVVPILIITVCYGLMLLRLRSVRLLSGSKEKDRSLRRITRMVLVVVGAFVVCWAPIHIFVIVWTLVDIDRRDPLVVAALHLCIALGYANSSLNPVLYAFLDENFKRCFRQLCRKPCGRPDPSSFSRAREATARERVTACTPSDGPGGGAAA

For `Oc1ccc2c3c1O[C@H]1c4[nH]c5ccccc5c4C[C@@]4(O)[C@@H](C2)N(CC2CC2)CC[C@]314` [Naltrindole], which “nH Historical” value (Opiate δ1 (OP1, DOP)) is on record?
The value was 1.0.

For `CCN(CC)CCOC(=O)c1ccc(N)cc1` [Procaine], which “stability in human plasma of standard” value [1] is on record?
Its value is “highly unstable”.

Which “nH Historical” value (Muscarinic M1 [2]) does the source give for `C[N+]1(C)CCC(OC(=O)C(c2ccccc2)c2ccccc2)CC1.[I-]` [Compound 4-DAMP, 4-DAMP] here?
The value was 1.0.

And the pIC50 (Muscarinic M1 [2]; read-out: IC50 Historical)?
Its pIC50 is 8.35.

And the “nH Historical” value (Muscarinic M3)?
The value was 1.10.

And the “nH Historical” value (Muscarinic M2)?
The value was 1.0.

And the pIC50 (Muscarinic M1 [3])?
The pIC50 was 8.26.

Which solubility of standard [4] does the source give for `OCCN(CCO)c1nc(N2CCCCC2)c2nc(N(CCO)CCO)nc(N3CCCCC3)c2n1` [Dipyridamole] here?
The solubility of standard was “poorly to moderately soluble”.

From article PMC4077706, “Lifting the Mask: Identification of New Small Molecule Inhibitors of Uropathogenic Escherichia coli Group 2 Capsule Biogenesis” (PLoS ONE, 2014)
